Results as given in patent US20150056273A1 (National Taiwan University of Science and Technology, priority 2013, published 2015).

What was measured:
[1] = percutaneous penetration experiments with different microbubble sizes, pigskin; assay type: in vitro ADME, pig; settings: microbubbles 1 minute, then dye with ultrasound 15 minutes
[2] = penetration-through experiments with different microbubble sizes, agar tissue simulator; assay type: in vitro ADME; settings: 1 minute, 0.25 wt % Evans blue, microbubbles 2×10^8 particles/ml

penetration depth of the dye ([1]; ultrasound 1 W (1 W/cm^2)): 12.78 μm
penetration depth of the dye ([1]; ultrasound 2 W (2 W/cm^2)): 14.17 μm
penetration depth of the dye ([1]; ultrasound 3 W (3 W/cm^2)): 15.5 μm
penetration depth of the dye ([2]; ultrasound 1 W (1 W/cm^2)): 373 ± 23 μm
penetration depth of the dye ([2]; ultrasound 2 W (2 W/cm^2)): 354 ± 14 μm
penetration depth of the dye ([2]; ultrasound 3 W (3 W/cm^2)): 379 ± 20 μm
SMILES: Cc1cc(-c2ccc(/N=N/c3ccc4c(S(=O)(=O)O)cc(S(=O)(=O)O)c(N)c4c3O)c(C)c2)ccc1/N=N/c1ccc2c(S(=O)(=O)O)cc(S(=O)(=O)O)c(N)c2c1O [U only, Evans blue]
